Laboratory results as given in patent publication US20230374103A1, “Wnt SIGNALING PATHWAY INHIBITOR” (OSAKA UNIVERSITY, priority 2020, published 2023).
Residues, ends and D or L forms follow the SMILES beside them.

Legend:
A549 cells [1] = assay: Proliferation assay (MTT) of A549 cells; format: cell-based, human
Experimental: The influence RANKL peptide on the proliferation of A549 cells (human lung alveolar basal epithelial cells: high expression of both LGR4 and RSPO3 was confirmed) was examined. Specifically, the following procedure was performed. MHP1 was administered at 1 ng/ml to 100 μg/ml to A549 cells, and the cell viability was calculated by MTT assay after 40 hours.

[2] = system: bleomycin-induced scleroderma model; assay: Early administration test in bleomycin-induced scleroderma model; format: in vivo, C57BL6/J mice; settings: 800 μg/mouse i.p. 5 days/week for 14 days in parallel with bleomycin
Experimental: As test animals, C57BL6/J mice (female, 8 weeks old) were prepared. 200 μg/mouse of bleomycin was subcutaneously injected at a frequency of 5 days/week for 14 days, and in parallel with this, 800 μg/mouse of saline or RANKL peptide was intraperitoneally administered at a frequency of 5 days/week for 14 days. The body weight was measured periodically during the dosing period. The mice were sacrificed 14 days after the start of administration and the skin tissue of the bleomycin-administered portion was stained with Masson's trichrome to evaluate fibrosis. Further, the expression of collagen gene mRNA, which is a fibrosis index, in the skin was evaluated.

[3] = system: α-SMA and Colla1 expression (EMT); assay: Expression of α-SMA and Colla1 induced by TGF-β in MRC-5 cells (real-time RT-PCR); format: cell-based
Experimental: The influence of RANKL peptide on the expression of α-SMA and Colla1 induced by TGF-β was examined. Specifically, the following procedure was performed. After pretreatment of MHP1 with MRC-5 cells for 24 hours, 2 ng/m/ of TGFβ was added, the cells were collected after 24 hours, and mRNA levels were determined by real-time RT-PCR.

[4] = system: bleomycin-induced scleroderma model; assay: Late administration test in bleomycin-induced scleroderma model; format: in vivo, C57BL6/J mice; settings: 800 μg/mouse i.p. 5 days/week for 14 days after 14 days of bleomycin
Experimental: As test animals, C57BL6/J mice (female, 8 weeks were prepared. 200 μg/mouse of bleomycin was subcutaneously injected at a frequency of 5 days/week for 14 days. Subsequently, 800 μg/mouse of saline or RANKL peptide was intraperitoneally administered at a frequency of 5 days/week for 14 days. The nice were sacrificed after 14 days (28 days after the start of bleomycin administration), and the skin tissue of the bleomycin-administered portion was stained with Masson's trichrome to evaluate fibrosis. Further, the expression of collagen gene mRNA, which is a fibrosis index, in the skin was evaluated.

[5] = system: bleomycin-induced pulmonary fibrosis model; assay: Administration test in bleomycin-induced pulmonary fibrosis model; format: in vivo, C57BL6/J mice; settings: 800 μg/mouse i.p. once, bleomycin intratracheally, 14 days
Experimental: As test animals, C57BL6/J mice (female, 8 weeks old) were prepared. Saline or RANKL peptide (800 μg/mouse) was administered intraperitoneally, and immediately thereafter, saline or bleomycin (0.05 μg/mouse) was directly administered intratracheally. The mice were sacrificed 14 days after administration, the lung weight and body weight were measured, and the lung weight/body weight ratio was determined. In addition, the lung tissue, was stained with Masson's trichrome, and Masson's trichrome score evaluation (0: normal, 1: fibrotic lesions predominantly at the margin of the lung, 2: marginal or global multifocal fibrotic lesions, 3: fibrotic lesions in approximately ⅓ of the area, 4: fibrotic lesions accounting for ⅔ or more of the area) was performed based on the stained images. Further, the expression of fibrosis marker gene mRNA in lung tissue was evaluated.

binding of LGR4 to RSPO1 = target: T1, binding of LGR4 to RSPO1 (Homo sapiens, UniProt Q9BXB1); assay: Competitive binding analysis of LGR4 and biotinylated RSPO1 (Flag-LGR4 transfected HEK293 cells, immunoprecipitation); settings: 50 ng/mL biotinylated RSPO1, 2 hours, MHP1-7 (FIG. 4)
T1 construct: host or cells: HEK293
T1 sequence (Q9BXB1 25-951): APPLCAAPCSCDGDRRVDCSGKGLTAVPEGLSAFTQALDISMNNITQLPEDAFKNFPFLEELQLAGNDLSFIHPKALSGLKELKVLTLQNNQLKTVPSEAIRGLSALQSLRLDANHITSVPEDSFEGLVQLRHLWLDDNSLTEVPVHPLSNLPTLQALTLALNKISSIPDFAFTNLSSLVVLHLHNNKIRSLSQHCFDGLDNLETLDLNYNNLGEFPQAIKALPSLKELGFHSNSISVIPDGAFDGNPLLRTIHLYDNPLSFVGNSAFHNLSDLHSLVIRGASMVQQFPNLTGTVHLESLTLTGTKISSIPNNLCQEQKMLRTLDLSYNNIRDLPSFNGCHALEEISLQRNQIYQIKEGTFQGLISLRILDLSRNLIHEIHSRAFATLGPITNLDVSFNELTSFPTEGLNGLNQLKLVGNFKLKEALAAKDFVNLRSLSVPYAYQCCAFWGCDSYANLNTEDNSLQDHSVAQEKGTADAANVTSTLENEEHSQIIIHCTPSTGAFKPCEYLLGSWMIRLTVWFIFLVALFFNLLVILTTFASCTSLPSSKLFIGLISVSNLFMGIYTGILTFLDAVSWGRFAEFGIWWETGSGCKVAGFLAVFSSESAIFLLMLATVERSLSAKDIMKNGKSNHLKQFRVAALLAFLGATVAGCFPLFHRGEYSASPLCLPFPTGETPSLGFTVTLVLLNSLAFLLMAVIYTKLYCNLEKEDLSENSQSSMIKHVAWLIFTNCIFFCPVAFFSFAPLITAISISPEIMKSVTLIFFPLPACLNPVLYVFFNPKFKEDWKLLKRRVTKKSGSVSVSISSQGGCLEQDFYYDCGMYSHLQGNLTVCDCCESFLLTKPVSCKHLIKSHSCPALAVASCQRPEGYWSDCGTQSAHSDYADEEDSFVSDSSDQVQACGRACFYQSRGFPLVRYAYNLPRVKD
Experimental: HEK293 cells were incubated with 100 μg/mL of RANKL peptide or biotinylated RANKL peptide for 30 minutes, followed by immunoprecipitation. For competitive binding analysis, HEK293 cells were transfected with a Flag-tagged LGR4 expression plasmid (OriGene Technologies) for 48 hours, and incubated for 2 hours in the presence of 50 ng/mL L of recombinant human biotinylated RSPO1 (R&D System, #BT4645) and RANKL peptide. For immunoprecipitation, the cells were washed twice with cold PBS and dissolved in a lysis buffer (50 mM Tris-HCL, pH 7.4, 150 mM NaCl, 5 mM EDTA, 0.5% NP40, 10% glycerol and protease inhibitor cocktail (Roche)). The sample was centrifuged at 16,000 g for 10 minutes. The supernatant was collected, and the protein concentration was determined. Immunoprecipitation from samples containing equal amounts of protein was performed at 4° C. overnight using high-capacity streptavidin agarose (Thermo Fisher Scientific or Anti-FLAG M2 Affinity Gel (Sigma-Aldrich), followed by washing twice with a lysis buffer, and elution with 2× Laemmli Sample Buffer at 37° C. for 30 minutes before Western blotting. The blotted membrane was incubated with the primary antibody at 4° C. overnight, washed with TBS containing 0.1% Tween-20, then incubated with the HRP-conjugated secondary antibody at room temperature for 1 hour, and then incubated with Chemi-Lumi One L (Nacalai Tesque). […]

smad2/3 = smad2/3 activation induced by TGF-β in MRC-5 cells (WB); format: cell-based; settings: 24 hours pretreatment, 5 ng/ml TGFβ, 10 minutes, MHP1-AcN (FIG. 17)
Experimental: The influence of RANEL peptide on smad2/3 activation induced by TGF-β was examined. Specifically, the following procedure was performed. After pretreatment of MRC-5 cells with MHP1 for 24 hours, 5 ng/ml of TGFβ was added to the medium, the medium was collected after 10 minutes, and WB was performed.

A549 cell xenograft = A549 cell xenograft model; format: in vivo, BALB/cAJcl-nu/nu; settings: 600 μg/mouse every day, up to 49 days
Experimental: The influence of RANKL peptide on cancer in an A549 cell xenograft model was examined. Specifically, the following procedure was performed. 2×10^6 cells were administered subcutaneously to BALB/cAJcl-nu/nu […]. After one day, 600 μg/mouse of MHP1 was administered every day, and the tumor size was measured up to 49 days. Further, the tumor weight was measured.

A549 cells [6] = assay: Migration/invasion assay of A549 cells (Boyden chamber / Matrigel Invasion chamber); format: cell-based, human
Experimental: The influence of RANKL peptide on the migration and invasion of A549 cells was examined. Specifically, the following procedure was performed. A chamber of an 8-μm polycarbonate membrane filter (Neuro Probe) was installed in the upper compartment of a Boyden chamber (48-well Chamber, Neuro Probe), A549 cells were seeded in serum-free DMEM containing MHP1-AcN, and DMEM containing 10% FBS was placed in the lower compartment, followed by incubation at 37° C. for 15 hours. In the invasion assay, the upper compartment was Matrigel Invasion chamber (Corning Life Science). Similar A549 cells were seeded in serum-free medium containing MHP1-AcN, and DEM containing 10% FBS was placed in the lower compartment. Cells adhering to the upper surface of each upper compartment were detached, the lower surface was stained with Diff-Quick (Sysmex), and the number of cells was counted under a microscope.

[7] = system: Wnt signaling activation by RSPO; assay: Wnt signaling inhibition test (β-catenin responsive element luciferase reporter); format: cell-based; settings: HEK293 reporter cells; 50 ng/mL wnt3a + 20 ng/mL RSPO1/2/3; 24 hours; peptide tested MHP1-7 (FIG. 2)
Experimental: HEK293 cells expressing luciferase under the control of β-catenin responsive element were plated on a 96 -well plastic plate (1×10^4 cells/well) and incubated in the presence or absence of 50 ng/mL of recombinant mouse wnt3a (R&D System, #1324-WN) and recombinant human RSPO1 (R&D System, #4645-RS), recombinant human RSPO2 (PeproTech, #120-43), or recombinant human RSPO3 (PeproTech, #120-44). When these were added at the same time as RANKL peptide, 50 ng/mL of recombinant mouse wnt3a and 20 ng/mL of RSPO1/2/3 were used. After incubation for 24 hours, luciferase activity was analyzed using a luciferase assay system (Promega) and a microplate luminometer (Centro XS3 LB960; Berthold Technologies). The protein concentration of each sample was measured using Takara Bradford Protein Assay Kit (Takara Bio Inc.). The results of luciferase activity were normalized to the protein concentration of each sample.

[8] = MRC-5 cells, 24 hours pretreatment, TGFβ 24 hours, 10, 30, 100 μg/ml MHP1-AcN (FIG. 19)

Compound: CC[C@H](C)[C@H](NC(=O)[C@H](CO)NC(=O)[C@@H](NC(=O)[C@H](CCCCN)NC(=O)[C@@H](NC(=O)[C@@H](NC(=O)[C@H](Cc1ccc(O)cc1)NC(=O)[C@@H](NC(=O)[C@H](CCSC)NC(=O)[C@H](CC(C)C)NC(C)=O)C(C)C)C(C)C)C(C)C)[C@@H](C)O)C(=O)N[C@@H](CCCCN)C(=O)N[C@H](C(=O)N1CCC[C@H]1C(=O)N[C@@H](CO)C(=O)N[C@@H](CO)C(=O)N[C@@H](Cc1c[nH]cn1)C(=O)N[C@@H](CC(N)=O)C(=O)N[C@@H](CC(C)C)C(=O)N[C@@H](CCSC)C(=O)N[C@@H](CCCCN)C(=O)NCC(=O)NCC(=O)N[C@@H](CO)C(=O)N[C@H](C(=O)N[C@@H](CCCCN)C(=O)N[C@@H](CC(N)=O)C(=O)N[C@@H](Cc1c[nH]c2ccccc12)C(=O)N[C@@H](CO)C(=O)NCC(=O)N[C@@H](CC(N)=O)C(N)=O)[C@@H](C)O)[C@@H](C)CC [MHP1-7] (Ac-LMVYVVKTSIKIPSSHNLMKGGSTKNWSGN-NH2)
- proliferation of lung cancer cells (cell viability, MTT) (A549 cells [1]; A549 cells, 1 ng/ml to 100 μg/ml, 40 hours, MHP1-AcN (FIG. 14)): inhibited
- Wnt signaling pathway in A549 cells (A549 cells [1]; along with the inhibition of the proliferation): inhibited
- skin thickening and fibrosis (Masson's trichrome, dermis thickness) ([2]; MHP1-7 (FIG. 5)): inhibited
- expression of the collagen gene mRNA in skin ([2]; MHP1-7 (FIG. 6)): inhibited
- weight loss (body weight) ([2]; MHP1-7 (FIG. 7)): suppressed
- expression of Colla1 induced by TGF-β [3, 8]: inhibited
- expression of α-SMA (ACTA2) induced by TGF-β [3, 8]: inhibited
- EMT (epithelial-mesenchymal transition) ([3]; concluded from α-SMA and Colla1 expression in MRC-5 cells): inhibited
- skin thickening and fibrosis (Masson's trichrome, dermis thickness) ([4]; MHP1-7 (FIG. 8)): inhibited
- expression of the collagen gene mRNA (Colla1, Colla2) in skin ([4]; MHP1-7 (FIGS. 9, 10)): inhibited
- lung weight gain ([5]; MHP1-7 (FIG. 11)): suppressed
- weight loss (body weight) ([5]; MHP1-7 (FIG. 11)): suppressed
- expression of the fibrosis marker gene mRNA in lung tissue ([5]; MHP1-7 (FIG. 12)): inhibited
- lung tissue fibrosis (Masson's trichrome score) ([5]; MHP1-7 (FIG. 13)): inhibited
- RSPO1 in the total cell lysate and the lysate immunoprecipitated with FLAG (Streptavidin-HRP) (binding of LGR4 to RSPO1): reduced
- binding of LGR4 to RSPO1 (binding of LGR4 to RSPO1): inhibits
- smad2/3 activation induced by TGF-β (smad2/3): inhibited
- influence on the degree of weight gain (A549 cell xenograft): not confirmed
- growth of cancer (tumor volume) (A549 cell xenograft; MHP1-AcN (FIG. 16)): inhibited
- migration of lung cancer cells (number of cells) (A549 cells [6]; A549 cells, Boyden chamber, 15 hours, MHP1-AcN (FIG. 15)): inhibited
- invasion of lung cancer cells (number of cells) (A549 cells [6]; A549 cells, Matrigel Invasion chamber, MHP1-AcN (FIG. 15)): inhibited
- Wnt signaling pathway in A549 cells (A549 cells [6]; migration/invasion test): inhibited
- Wnt signaling activation by RSPO (luciferase activity normalized to protein concentration) [7]: inhibited
